Measured values taken from patent publication US20050222266A1, “2-indanylamino derivatives for the therapy of chronic pain” (priority 2002, published 2005).

What was measured:
[1] = test system: rat MES model; conditions: cited from earlier work
[2] = test system: mechanical hyperalgesia in streptozotocin (STZ)-induced diabetic neuropathy; assay: streptozotocin-induced diabetic neuropathy, paw pressure test; assay type: in vivo, rat; conditions: 100 mg/kg p.o.
Procedure: The objective of this study was to assess the antinociceptive effects of CHF 3381 (25, 50 and 100 mg/kg p.o.) and gabapentin (100 mg/kg p.o) on mechanical hyperalgesia in streptozotocin (STZ)-induced diabetic neuropathy in rats. Diabetes was induced by intraperitoneal injection of STZ (75 mg/kg), and 23 days later its presence was confirmed by measuring of tail vein blood glucose levels and only rats with […] were included in the study.
After 25 days, distilled water, CHF3381 and gabapentin were administered 60 minutes before pain measurement. The nociceptive threshold was evaluated in all groups using a mechanical nociceptive stimulation (paw pressure test).
An increasing pressure (grams of contact pressure) was applied onto the both hind paws of the animal until a nociceptive reaction (vocalisation or paw withdrawal) was determined. The results, expressed as the percentage variation of the nociceptive threshold calculated respect the mean value of the vehicle-treated diabetic group, are reported in Table 2.

[3] = test system: formalin-induced licking and flinching; assay: mouse formalin test, 9 day treatment (tolerance); assay type: in vivo, mice
Procedure: The mice paw formalin test was performed as described by Wheeler-Aceto et al. (Psychopharmacology 104:35-44, 1991). Briefly, the day before the formalin injection, mice were placed individually into clear plastic cylinders for 30 minutes of adaptation. The day of testing 20 μl of 1% formalin was injected into the plantar surface of the left hind paw and the animals were again placed into the plastic cylinder for the behavioural observation. The amount of time, in seconds, the animals spent licking and flinching (L/F) the injected paw for the first 5 min (early phase), and then from 10 to 40 min(late phase) after formalin injection, was used as measurement of intensity of pain. CHF 3381 10-100 mg/kg i.p. and 25-200 mg/kg p.o. or the corresponding vehicles, were administered 15 and 30 min before formalin injection, respectively.
Moreover, the formalin test was used to examine whether tolerance develops with respect to the antihyperalgesic effect of CHF 3381 after chronic treatment in comparison with the standard opioid morphine. Briefly, mice were divided randomly into five groups (12 mice per group) and administered once daily for 8 days as follows: three groups with saline i.p., one group with CHF 3381 60 mg/kg i.p. and one group with morphine 20 mg/kg i.p. On ninth day these groups were treated in following way: one saline pre-treated group was treated with saline i.p. (g1); two saline pre-treated group were treated with CHF 3381 30 mg/kg i.p. (g2) and with morphine 6 mg/kg i.p. (g3), respectively; the group pre-treated with CHF 3381 60 mg/kg was treated with CHF 3381 30 mg/kg i.p. (g4) and the group pre-treated with morphine 20 mg/kg was treated with morphine 6 mg/kg i.p.(g5), a dose that was previously shown to be active in the formalin test. CHF 3381 and morphine were administered 15 and 30 min before formalin injection, respectively.

[4] = G3: 6 mg/kg i.p. on ninth day after 8 days saline
[5] = G5: 6 mg/kg i.p. on ninth day after 8 days morphine 20 mg/kg i.p.

SMILES: CC(NC1Cc2ccccc2C1)C(N)=O.Cl (stereo not shown) [2-(2-indanylamino)-propanamide hydrochloride]
- anti-convulsivant activity [1]: anti-convulsivant activity

SMILES: Cl.NC(=O)C(CO)NC1Cc2ccccc2C1 (stereo not shown) [3-hydroxy-2-(2-indanylamino)-propanamide hydrochloride]
- anti-convulsivant activity [1]: anti-convulsivant activity

SMILES: NCC1(CC(=O)O)CCCCC1 [Gabapentin, gabapentin, reference compound]
- Nociceptive threshold ([2]; 60 minutes before measurement): 229.2 ± 32.3 g
- % variation of the nociceptive threshold ([2]; vs vehicle-treated diabetic group): 68%

SMILES: CN1CC[C@]23c4c5ccc(O)c4O[C@H]2[C@@H](O)C=C[C@H]3[C@H]1C5 [Morphine, morphine, reference compound]
- Early phase [3, 4]: 52 ± 15 s
- Late phase [3, 4]: 91 ± 21 s
- Early phase [3, 5]: 95 ± 9 s
- Late phase [3, 5]: 175 ± 22 s
- antihyperalgesic action after chronic treatment (tolerance) ([3]; once daily for 8 days, test on ninth day): failed to show such actions

SMILES: CN(CC(N)=O)C1Cc2ccccc2C1.Cl [N-2(indanyl)-N-methyl glicinamide hydrochloride]
- anti-convulsivant activity [1]: anti-convulsivant activity
